Test system: lactation in nursing females
Experiment: Topical cream applied to the nipple of a nursing mother; reported milk production
Format: in vivo, human
Conditions: nursing parent with child, 2 ml of Lubriderm Ultra cream with two percent, by volume, stanozolol, left on about two minutes, then washed off
Experimental: In use, the cream is applied to a nipple prior to breast feeding. Generally, the cream is left on the nipple for about five to about twenty minutes and, usually, for about five to about fifteen minutes.
It is then removed by washing. Then the mother is then ready to being nursing.
A nursing parent having a child with the ability to achieve adequate lactation has applied a 2 ml quantity of a Lubriderm Ultra cream having two percent, by volume, stanozolol added thereto. The so-applied cream is left on for about two minutes. It is then washed off.

Compound: C[C@]12Cc3c[nH]nc3C[C@@H]1CC[C@@H]1[C@@H]2CC[C@@]2(C)[C@H]1CC[C@]2(C)O [stanozolol]
- milk production (reported by the mother): increase in milk production

From patent US20150216880A1, “INDUCING LACTATION IN NURSING FEMALES” (priority 2014, published 2015)
